Assay results: ChEMBL document CHEMBL4028861, “Selective Nonsteroidal Glucocorticoid Receptor Modulators for the Inhaled Treatment of Pulmonary Diseases” (J Med Chem, 2017)

Columns and labels:
[1] = Terminal half life in Wistar Han rat 1 umol/kg, iv administered as bolus dose by LC-MS/MS analysis; type: ADME, organism-based; details: in vivo, read-out: beta t1/2 (converted)
[2] = Intrinsic clearance in human hepatocytes assessed per million cells; type: ADME, cell-based, Hepatocyte; details: read-out: CLH
Lung [3] = experiment: Drug uptake in Wistar Han rat lung at 0.1 umol/kg, administered via intratracheal instillation after 4 hrs by LC-MS/MS analysis; type: ADME, tissue-based; details: in vivo, inhaled_or_intranasal
[4] = Clearance in Wistar Han rat at 1 umol/kg, iv administered as bolus dose by LC-MS/MS analysis; type: ADME, organism-based; details: in vivo
[5] = Apparent terminal half life in Wistar Han rat lung at 0.1 umol/kg, administered via intratracheal instillation by LC-MS/MS analysis; type: ADME, tissue-based; details: inhaled or intranasal, read-out: betat1/2(app) (converted)
[6] = AUC (0 to infinity) in Wistar Han rat lung at 0.1 umol/kg, administered via intratracheal instillation by LC-MS/MS analysis; type: ADME, tissue-based; design: dose 0.1 umol/kg, time infinity; details: inhaled or intranasal
[7] = Lipophilicity, log D of the compound by chromatography; type: physicochemical
[8] = Volume of distribution at steady state in Wistar Han rat at 1 umol/kg, iv administered as bolus dose by LC-MS/MS analysis; type: ADME, organism-based; details: in vivo, read-out: Vdss
[9] = Oral bioavailability in Wistar Han rat administered via gavage by LC-MS/MS analysis; type: ADME, organism-based; details: in vivo
[10] = Mean residence time in Wistar Han rat lung at 0.1 umol/kg, administered via intratracheal instillation by LC-MS/MS analysis; type: ADME, tissue-based; details: inhaled or intranasal
[11] = Intrinsic clearance in Wistar Han rat hepatocytes assessed per 10^6 cells; type: ADME, cell-based, Hepatocyte; details: read-out: CLH
Lung [12] = experiment: Drug uptake in Wistar Han rat lung at 0.1 umol/kg, administered via intratracheal instillation after 24 hrs by LC-MS/MS analysis; type: ADME, tissue-based; details: in vivo, inhaled_or_intranasal
[13] = Cmax in Wistar Han rat plasma at 0.1 umol/kg, administered via intratracheal instillation by LC-MS/MS analysis; type: ADME; design: dose 0.1 umol/kg; details: inhaled or intranasal

## C[C@H](NC(=O)C(C)(F)F)[C@H](Oc1ccc2c(cnn2-c2ccc(F)cc2)c1)c1ccc2c(c1)OCCO2
[1]
  half-life: 7.4 h
[2]
  hepatocyte CLint: 28 µL/min/1e6 cells
Lung [3]
  Drug uptake: 4.5 %ID
[4]
  clearance: 42 mL/min/kg
[5]
  half-life: 8.9 h
[6]
  AUC(0-inf): 12 µM·h
[7]
  chromatographic logD: 5.5
[8]
  Vd: 10 L/kg
[9]
  bioavailability: 11%
[10]
  MRT: 8.8 h
[11]
  hepatocyte CLint: 22 µL/min/1e6 cells
Lung [12]
  Drug uptake: 0.8 %ID
[13]
  Cmax: 30 nM
